Ends that are not written are not given here.

Data set [1] relates to anesthetized male Sprague-Dawley rats. The data set is described as follows: Inotropic effect in vivo in anaesthetized rats (stroke work, heart rate). The note with it: i.v. infusion; for heart rate: 0.2 and 0.5 nmol/kg/min.
Source text: The rats were exposed to 5% isoflurane in 1:2 N2O:O2 until anesthesia were established.
A catheter was inserted into the left femoral vein for drug administration and a pressure-volume catheter was inserted into the left ventricle via the right carotid artery. After instrumentation, isoflurane was delivered in pure O2 during the experiment.
The horizontal line marks 40% increase in stroke work, which was defined as the maximal increase that should be obtained during the experiment.
The target of another data set is T1, human glucagon receptor (Homo sapiens, UniProt P47871).
T1 construct: expressed in transfected cells; host or cells: HEK293
The data set is described as follows: cAMP formation in HEK293 cells expressing the human glucagon receptor. In kind it is cell-based. The note with it: 15 min at 37° C., read-out: EC50 (nM) GuR. An excerpt: (§1) Similarly, activation of the GLP-1 receptor by a GLP-1 agonist will stimulate cellular cAMP formation. Thus, production of cAMP in suitable cells expressing one of these two receptors can be used to monitor the relevant receptor activity.
(§2) The skilled person will be aware of suitable assay formats, and examples are provided below. […] (Where sequences of precursor proteins are referred to, it should of course be understood that assays may make use of the mature protein, lacking the signal sequence).
(§3) On the day of analysis, growth medium was removed and the cells washed once with 200 μl Tyrode buffer. Cells were incubated in […] containing increasing concentrations of test peptides, 100 μM IBMX, and 6 mM glucose for 15 min at 37° C. The reaction was stopped by addition of 25 μl 0.5 M HCl and incubated on ice for 60 min. The cAMP content was estimated using the FlashPlate® cAMP kit from Perkin-Elmer. EC50 values were estimated by computer aided curve fitting.
On the technique in general: Changes in cAMP serve as a functional read-out for many G protein-coupled receptors.

Another data set concerns the target T2, human GLP-1R (Homo sapiens, UniProt P43220).
T2 construct: expressed in transfected cells; host or cells: HEK293
The experiment in a line: cAMP formation in HEK293 cells expressing human GLP-1R. In kind it is cell-based. The note with it: 15 min at 37° C.
Source text: as §1, §2, §3

T1 sequence (P47871 26-477): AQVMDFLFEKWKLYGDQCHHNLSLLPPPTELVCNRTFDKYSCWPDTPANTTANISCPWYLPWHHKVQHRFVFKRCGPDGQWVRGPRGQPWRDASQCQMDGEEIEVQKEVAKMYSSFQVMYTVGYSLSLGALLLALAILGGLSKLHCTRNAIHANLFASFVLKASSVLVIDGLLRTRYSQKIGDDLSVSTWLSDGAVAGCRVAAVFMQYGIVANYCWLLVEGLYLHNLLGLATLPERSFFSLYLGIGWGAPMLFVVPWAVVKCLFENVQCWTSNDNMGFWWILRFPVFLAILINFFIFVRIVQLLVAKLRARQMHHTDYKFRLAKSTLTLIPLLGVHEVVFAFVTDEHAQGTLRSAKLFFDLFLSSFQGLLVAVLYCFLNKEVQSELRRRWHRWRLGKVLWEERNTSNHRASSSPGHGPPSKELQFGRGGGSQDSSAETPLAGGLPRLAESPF
T2 sequence (P43220 24-463): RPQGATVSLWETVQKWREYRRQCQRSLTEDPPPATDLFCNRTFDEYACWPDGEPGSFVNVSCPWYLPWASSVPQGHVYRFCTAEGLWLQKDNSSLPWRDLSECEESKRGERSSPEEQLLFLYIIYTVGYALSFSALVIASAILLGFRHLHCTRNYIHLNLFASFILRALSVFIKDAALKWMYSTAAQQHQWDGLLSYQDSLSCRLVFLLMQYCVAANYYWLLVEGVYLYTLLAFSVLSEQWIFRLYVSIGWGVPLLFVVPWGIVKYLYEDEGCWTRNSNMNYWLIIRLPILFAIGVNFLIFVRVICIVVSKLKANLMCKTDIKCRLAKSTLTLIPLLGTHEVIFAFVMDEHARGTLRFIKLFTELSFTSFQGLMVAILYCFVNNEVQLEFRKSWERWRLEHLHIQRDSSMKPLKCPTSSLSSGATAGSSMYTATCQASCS

On to “HSQGTFTSDYSKYLDSKAARDFVRWLKLA-NH2 [Compound 37]”, for which the heart rate result in data set [1] was “tendency”. The compound “HSQGTFTSDYSKYLDRARADDFVAWLERA [Compound 9]” displayed an increase in strokework in data set [1] (at a given infusion rate (up to 2.5 nmol/kg/min), 40% set as end point) of 40%. Broadly, the EC50 is the concentration needed to bring the measured effect to its halfway point. Consider `CC(C)C[C@H](NC(=O)[C@H](Cc1ccc(O)cc1)NC(=O)[C@H](CCCCN)NC(=O)[C@H](CO)NC(=O)[C@H](Cc1ccc(O)cc1)NC(=O)[C@H](CC(=O)O)NC(=O)[C@H](CO)NC(=O)[C@@H](NC(=O)[C@H](Cc1ccccc1)NC(=O)[C@@H](NC(=O)CNC(=O)[C@H](CCC(N)=O)NC(=O)[C@H](CO)NC(=O)[C@@H](N)Cc1c[nH]cn1)[C@@H](C)O)[C@@H](C)O)C(=O)N[C@@H](CC(=O)O)C(=O)N[C@@H](CO)C(=O)N[C@@H](CCCNC(=N)N)C(=O)N[C@@H](CCCNC(=N)N)C(=O)N[C@@H](C)C(=O)N[C@@H](CCC(N)=O)C(=O)N[C@@H](CC(=O)O)C(=O)N[C@@H](Cc1ccccc1)C(=O)N[C@H](C(=O)N[C@@H](Cc1c[nH]c2ccccc12)C(=O)N[C@@H](CC(C)C)C(=O)N[C@@H](CCCCN)C(=O)N[C@@H](CCCNC(=N)N)C(=O)N[C@@H](C)C(N)=O)C(C)C` [Compound 250], for which the results for the concentration for a half-maximal effect (EC50) at human glucagon receptor and on human GLP-1R were 0.1 nM and 0.3 nM, respectively.

As to `CC[C@H](C)[C@H](NC(=O)[C@H](Cc1ccccc1)NC(=O)[C@H](CC(=O)O)NC(=O)[C@H](CCCCN)NC(=O)[C@H](C)NC(=O)[C@H](CCCNC(=N)N)NC(=O)[C@H](CCCNC(=N)N)NC(=O)[C@H](CCC(=O)O)NC(=O)[C@H](CC(=O)O)NC(=O)[C@H](CC(C)C)NC(=O)[C@H](Cc1ccc(O)cc1)NC(=O)[C@H](CCCCN)NC(=O)[C@H](CO)NC(=O)[C@H](Cc1ccc(O)cc1)NC(=O)[C@H](CC(=O)O)NC(=O)[C@H](CO)NC(=O)[C@@H](NC(=O)[C@H](Cc1ccccc1)NC(=O)[C@@H](NC(=O)CNC(=O)[C@H](CCC(N)=O)NC(=O)[C@H](CO)NC(=O)[C@@H](N)Cc1c[nH]cn1)[C@@H](C)O)[C@@H](C)O)C(=O)N[C@@H](CCC(=O)O)C(=O)N[C@@H](Cc1c[nH]c2ccccc12)C(=O)N[C@@H](CC(C)C)C(=O)N[C@@H](CC(C)C)C(=O)N[C@@H](CO)C(=O)N[C@@H](C)C(N)=O` [Compound 35], the heart rate result in data set [1] is “tendency”. Regarding `CC(C)C[C@H](NC(=O)[C@H](Cc1ccc(O)cc1)NC(=O)[C@H](CCCCN)NC(=O)[C@H](CO)NC(=O)[C@H](Cc1ccc(O)cc1)NC(=O)[C@H](CC(=O)O)NC(=O)[C@H](CO)NC(=O)[C@@H](NC(=O)[C@H](Cc1ccccc1)NC(=O)[C@@H](NC(=O)CNC(=O)[C@H](CCC(N)=O)NC(=O)[C@H](CO)NC(=O)[C@@H](N)Cc1c[nH]cn1)[C@@H](C)O)[C@@H](C)O)C(=O)N[C@@H](CC(=O)O)C(=O)N[C@@H](CO)C(=O)N[C@@H](CCCNC(=N)N)C(=O)N[C@@H](CCCNC(=N)N)C(=O)N[C@@H](C)C(=O)N[C@@H](CCC(N)=O)C(=O)N[C@@H](CC(=O)O)C(=O)N[C@@H](Cc1ccccc1)C(=O)N[C@H](C(=O)N[C@@H](Cc1c[nH]c2ccccc12)C(=O)N[C@@H](CC(C)C)C(=O)N[C@@H](CCC(=O)O)C(=O)N[C@@H](CO)C(=O)N[C@@H](C)C(N)=O)C(C)C` [Compound 248], the EC50 at human glucagon receptor was 0.1 nM; on human GLP-1R, 0.5 nM.

(Values after patent US20130157953A1, “TREATMENT OF CARDIAC CONDITIONS” (Zealand Pharma A/S, priority 2010, published 2013).)
